Laboratory results published in US9409905B2, “Antibacterial compounds and methods for use” (PTC THERAPEUTICS, INC., priority 2011, dated 2016).
In brackets after ≈: the same amount, converted by molar mass.

Key:
[1] = system: Escherichia coli (E. coli) BAS849; test: Antibacterial activity, microbroth dilution MIC (Table 1); format: cell-based; conditions: microbroth dilution, super sensitive Gram-negative E. coli BAS849, read-out: MIC, BAS849
Procedure, shortened: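 Microbroth dilution was used. MIC, in μg/mL, is the lowest drug concentration preventing macroscopically visible growth under the test conditions.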

[2] = system: Staphylococcus aureus (S. aureus) 29213; test: as above; format: cell-based; conditions: microbroth dilution, Gram-positive S. aureus 29213, read-out: MIC, 29213
Procedure, shortened: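 Potency is reported as minimum inhibitory concentration in μg/mL, determined by broth microdilution as the lowest level of compound that stops growth visible to the eye.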

E. coli 25922 = test: as above; format: cell-based, Escherichia coli; conditions: Escherichia coli; microbroth dilution; control Gram-negative E. coli 25922 strain; read-out: MIC, 25922
Procedure, shortened: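 MIC (μg/mL) is taken as the lowest concentration with no macroscopically visible growth. Strains tested by microbroth dilution: Gram-positive S. aureus 29213, control Gram-negative E. coli 25922, and super-sensitive E. coli BAS849.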

E. coli LZ3111 = test: Antibacterial activity, MIC, quinolone resistant strain (Table 2); format: cell-based; conditions: Escherichia coli, LZ3111, read-out: MIC LZ3111
Procedure, shortened: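 MIC values (μg/mL) came from a microbroth dilution assay, scored as the lowest drug concentration at which no growth was visible by eye.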

E. coli ELZ4000 = test: Antibacterial activity, MIC, multi-drug resistant clinical isolate (Table 3); format: cell-based; conditions: Escherichia coli, ELZ4000, read-out: MIC ELZ4000
Procedure, shortened: (§1)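 Compounds were serially diluted in broth microdilution format and growth was scored visually; the MIC is the lowest concentration at which no macroscopically visible growth occurred, expressed in μg/mL.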

E. coli ELZ4251 = test: as above; format: cell-based; conditions: Escherichia coli
Procedure, shortened: as §1

[3] = system: Acinetobacter baumannii (A. baumannii) BAA747; test: Antibacterial activity, MIC (Table 4); format: cell-based; conditions: A. baumannii BAA747, read-out: MIC, BAA747
Procedure, shortened: (§2)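 Activity was measured by microbroth dilution. The MIC, in μg/mL, is the lowest drug concentration that prevents macroscopically visible growth under the test conditions. The resistant strains are multi-drug resistant clinical isolates.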

[4] = system: Klebsiella pneumoniae (K. pneumoniae) 35657; test: Antibacterial activity, MIC (Table 4); format: cell-based; conditions: K. pneumoniae 35657, read-out: MIC, 35657
Procedure, shortened: as §2

A. baumannii MXX2240 = test: Antibacterial activity, MIC, resistant strain (Table 4); format: cell-based; conditions: Acinetobacter baumannii, MXX2240; resistant A. baumannii MMX2240, multi-drug resistant clinical isolate; read-out: MIC, MMX2240
Procedure, shortened: as §2

K. pneumoniae MXX1232 = test: as above; format: cell-based; conditions: Klebsiella pneumoniae, MXX1232; resistant K. pneumoniae MMX1232, multi-drug resistant clinical isolate; read-out: MIC, MMX1232
Procedure, shortened: as §2

[5] = system: Pseudomonas aeruginosa (P. aeruginosa) 27853; test: Antibacterial activity, MIC (Table 5); format: cell-based; conditions: P. aeruginosa 27853, read-out: MIC, 27853
Procedure, shortened: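 Values are MICs in μg/mL, read as the lowest concentration at which no growth is visible by eye. They were determined by a microbroth dilution method.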

Compound | MIC [1] [µg/mL] | MIC [2] [µg/mL] | MIC (E. coli 25922) [µg/mL] | MIC (E. coli LZ3111) [µg/mL] | MIC (E. coli ELZ4000) [µg/mL] | MIC (E. coli ELZ4251) [µg/mL] | MIC [3] [µg/mL] | MIC [4] [µg/mL] | MIC (A. baumannii MXX2240) [µg/mL] | MIC (K. pneumoniae MXX1232) [µg/mL] | MIC [5] [µg/mL]
CCc1c(-c2ccc3ccn(C)c3c2)[nH]c(=O)c(C(=O)O)c1O [Cpd 8, 5-ethyl-4-hydroxy-6-(1-methyl-1H-indol-6-yl)-2-oxo-1,2-dihydropyridine-3-carboxylic acid] | 1 to 3.5 (≈ 3.2 to 11.2 µM) | 3.5 to 12.5 (≈ 11.2 to 40 µM) | 12.5 to 150 (≈ 40 to 480 µM) | 3.5 to 12.5 (≈ 11.2 to 40 µM) | 12.5 to 150 (≈ 40 to 480 µM) | 12.5 to 150 (≈ 40 to 480 µM) | 12.5 to 150 (≈ 40 to 480 µM) | 12.5 to 150 (≈ 40 to 480 µM) | 12.5 to 150 (≈ 40 to 480 µM) | 12.5 to 150 (≈ 40 to 480 µM) | 12.5 to 150 (≈ 40 to 480 µM)
CCc1c(-c2ccc3c(ccn3CCO)c2)[nH]c(=O)c(C(=O)O)c1O [Cpd 24, 5-ethyl-4-hydroxy-6-(1-(2-hydroxyethyl)-1H-indol-5-yl)-2-oxo-1,2-dihydropyridine-3-carboxylic acid] | < 1 | 3.5 to 12.5 (≈ 10.2 to 36.5 µM) | 3.5 to 12.5 (≈ 10.2 to 36.5 µM) | 12.5 to 150 (≈ 36.5 to 438 µM) | 12.5 to 150 (≈ 36.5 to 438 µM) | 12.5 to 150 (≈ 36.5 to 438 µM) | 3.5 to 12.5 (≈ 10.2 to 36.5 µM) |  | 12.5 to 150 (≈ 36.5 to 438 µM) | 12.5 to 150 (≈ 36.5 to 438 µM) | 
CCc1cc(C(=O)O)c(=O)[nH]c1-c1ccc2c(c1)cc(CN1CC[C@@H](F)C1)n2C [Cpd 129, (R)-5-ethyl-6-(2-((3-fluoropyrrolidin-1-yl)methyl)-1-methyl-1H-indol-5-yl)-2-oxo-1,2-dihydropyridine-3-carboxylic acid] | < 1 | 3.5 to 12.5 (≈ 8.81 to 31.5 µM) | < 1 | 12.5 to 150 (≈ 31.5 to 377 µM) | 12.5 to 150 (≈ 31.5 to 377 µM) | 12.5 to 150 (≈ 31.5 to 377 µM) | 3.5 to 12.5 (≈ 8.81 to 31.5 µM) | 1 to 3.5 (≈ 2.52 to 8.81 µM) | 12.5 to 150 (≈ 31.5 to 377 µM) | 12.5 to 150 (≈ 31.5 to 377 µM) | 12.5 to 150 (≈ 31.5 to 377 µM)
CCc1cc(C(=O)O)c(=O)[nH]c1-c1ccc2c(c1)cc(CN1CCCC1C)n2C (stereo not shown) [Cpd 130, 5-ethyl-6-(1-methyl-2-((2-methylpyrrolidin-1-yl)methyl)-1H-indol-5-yl)-2-oxo-1,2-dihydropyridine-3-carboxylic acid] | < 1 | 12.5 to 150 (≈ 31.8 to 381 µM) | < 1 | 12.5 to 150 (≈ 31.8 to 381 µM) | 12.5 to 150 (≈ 31.8 to 381 µM) | 12.5 to 150 (≈ 31.8 to 381 µM) | 1 to 3.5 (≈ 2.54 to 8.89 µM) | < 1 | 12.5 to 150 (≈ 31.8 to 381 µM) | 12.5 to 150 (≈ 31.8 to 381 µM) | 12.5 to 150 (≈ 31.8 to 381 µM)
CCc1cc(C(=O)O)c(=O)[nH]c1-c1ccc2c(c1)cc(CN1CCC[C@@H]1CO)n2C [Cpd 132, (R)-5-ethyl-6-(2-((2-(hydroxymethyl)pyrrolidin-1-yl)methyl)-1-methyl-1H-indol-5-yl)-2-oxo-1,2-dihydropyridine-3-carboxylic acid] | < 1 | 12.5 to 150 (≈ 30.5 to 366 µM) | < 1 | 12.5 to 150 (≈ 30.5 to 366 µM) | 12.5 to 150 (≈ 30.5 to 366 µM) | 12.5 to 150 (≈ 30.5 to 366 µM) | 3.5 to 12.5 (≈ 8.55 to 30.5 µM) | < 1 | 12.5 to 150 (≈ 30.5 to 366 µM) | 12.5 to 150 (≈ 30.5 to 366 µM) | 12.5 to 150 (≈ 30.5 to 366 µM)
CCc1c(-c2ccc3c(c2)cc(CN2CC[C@@H](F)C2)n3C)[nH]c(=O)c(C(=O)O)c1O [Cpd 177, (R)-5-ethyl-6-(2-((3-fluoropyrrolidin-1-yl)methyl)-1-methyl-1H-indol-5-yl)-4-hydroxy-2-oxo-1,2-dihydropyridine-3-carboxylic acid] | < 1 | 3.5 to 12.5 (≈ 8.47 to 30.2 µM) | 1 to 3.5 (≈ 2.42 to 8.47 µM) | 3.5 to 12.5 (≈ 8.47 to 30.2 µM) | 12.5 to 150 (≈ 30.2 to 363 µM) | 3.5 to 12.5 (≈ 8.47 to 30.2 µM) |  | 1 to 3.5 (≈ 2.42 to 8.47 µM) |  | 12.5 to 150 (≈ 30.2 to 363 µM) | 12.5 to 150 (≈ 30.2 to 363 µM)
CCc1c(-c2ccc3c(c2)cc(CN2CCC(OC)C2)n3C)[nH]c(=O)c(C(=O)O)c1O (stereo not shown) [Cpd 179, 5-ethyl-4-hydroxy-6-(2-((3-methoxypyrrolidin-1-yl)methyl)-1-methyl-1H-indol-5-yl)-2-oxo-1,2-dihydropyridine-3-carboxylic acid] | < 1 | 3.5 to 12.5 (≈ 8.23 to 29.4 µM) | 1 to 3.5 (≈ 2.35 to 8.23 µM) | 3.5 to 12.5 (≈ 8.23 to 29.4 µM) | 12.5 to 150 (≈ 29.4 to 353 µM) | 3.5 to 12.5 (≈ 8.23 to 29.4 µM) | 1 to 3.5 (≈ 2.35 to 8.23 µM) |  | 3.5 to 12.5 (≈ 8.23 to 29.4 µM) | 12.5 to 150 (≈ 29.4 to 353 µM) | 12.5 to 150 (≈ 29.4 to 353 µM)
CCc1c(-c2ccc3c(c2)cc(CN2CC(F)C2)n3C)[nH]c(=O)c(C(=O)O)c1O [Cpd 194, 5-ethyl-6-(2-((3-fluoroazetidin-1-yl)methyl)-1-methyl-1H-indol-5-yl)-4-hydroxy-2-oxo-1,2-dihydropyridine-3-carboxylic acid] | < 1 | 3.5 to 12.5 (≈ 8.76 to 31.3 µM) | 1 to 3.5 (≈ 2.5 to 8.76 µM) | 3.5 to 12.5 (≈ 8.76 to 31.3 µM) | 12.5 to 150 (≈ 31.3 to 376 µM) | 12.5 to 150 (≈ 31.3 to 376 µM) | 1 to 3.5 (≈ 2.5 to 8.76 µM) |  | 3.5 to 12.5 (≈ 8.76 to 31.3 µM) | 12.5 to 150 (≈ 31.3 to 376 µM) | 12.5 to 150 (≈ 31.3 to 376 µM)
CCc1c(-c2ccc3c(c2)cc(CN2CC(CO)C2)n3C)[nH]c(=O)c(C(=O)O)c1O [Cpd 271, 5-ethyl-4-hydroxy-6-(2-((3-(hydroxymethyl)azetidin-1-yl)methyl)-1-methyl-1H-indol-5-yl)-2-oxo-1,2-dihydropyridine-3-carboxylic acid] | < 1 | 12.5 to 150 (≈ 30.4 to 365 µM) | < 1 | 3.5 to 12.5 (≈ 8.51 to 30.4 µM) | 12.5 to 150 (≈ 30.4 to 365 µM) | 3.5 to 12.5 (≈ 8.51 to 30.4 µM) | 1 to 3.5 (≈ 2.43 to 8.51 µM) |  | 12.5 to 150 (≈ 30.4 to 365 µM) | 12.5 to 150 (≈ 30.4 to 365 µM) | 3.5 to 12.5 (≈ 8.51 to 30.4 µM)
CCc1c(-c2ccc3c(c2)cc(CNC(CF)CF)n3C)[nH]c(=O)c(C(=O)O)c1O [Cpd 274, 6-(2-((1,3-difluoropropan-2-ylamino)methyl)-1-methyl-1H-indol-5-yl)-5-ethyl-4-hydroxy-2-oxo-1,2-dihydropyridine-3-carboxylic acid] | < 1 | 3.5 to 12.5 (≈ 8.34 to 29.8 µM) | 1 to 3.5 (≈ 2.38 to 8.34 µM) | 3.5 to 12.5 (≈ 8.34 to 29.8 µM) | 12.5 to 150 (≈ 29.8 to 358 µM) | 3.5 to 12.5 (≈ 8.34 to 29.8 µM) | 3.5 to 12.5 (≈ 8.34 to 29.8 µM) |  | 3.5 to 12.5 (≈ 8.34 to 29.8 µM) | 12.5 to 150 (≈ 29.8 to 358 µM) | 12.5 to 150 (≈ 29.8 to 358 µM)
Cc1c(-c2ccc3c(c2)cc(CN2CCCC2)n3C)[nH]c(=O)c(C(=O)O)c1O [Cpd 313, 4-hydroxy-5-methyl-6-(1-methyl-2-(pyrrolidin-1-ylmethyl)-1H-indol-5-yl)-2-oxo-1,2-dihydropyridine-3-carboxylic acid] | < 1 | 12.5 to 150 (≈ 32.8 to 393 µM) | 3.5 to 12.5 (≈ 9.18 to 32.8 µM) | 1 to 3.5 (≈ 2.62 to 9.18 µM) | 3.5 to 12.5 (≈ 9.18 to 32.8 µM) | 1 to 3.5 (≈ 2.62 to 9.18 µM) | 3.5 to 12.5 (≈ 9.18 to 32.8 µM) |  | 1 to 3.5 (≈ 2.62 to 9.18 µM) | 12.5 to 150 (≈ 32.8 to 393 µM) | 12.5 to 150 (≈ 32.8 to 393 µM)
